Laboratory results as given in US20200270575A1, “Culture System for Expanding Hematopoietic Stem Cells and/or Hematopoietic Progenitor Cells and the Method Thereof, Hematopoietic Stem Cells and Hematopoietic Progenitor Cells” (NEWISH TECHNOLOGY (BEIJING) CO., LTD., priority 2017, published 2020).

Columns and labels:
immunodeficient mice = assay: Transplantation experiment in vivo: reconstitution of human cells in bone marrow and peripheral blood after 4 months; details: for reconstruction effect of experimental group relative to control group (DMSO): 4 months; for blood cells in human peripheral blood (reconstitution proportion of peripheral blood) / reconstruction proportion of human blood cells in bone marrow (CD45+ cells): 4 months after transplantation
Protocol: On the 7th day of the culturing, the transplantation experiment in vivo was carried out at the meantime. The expanded CD34+ cells in the experimental group and the control group were respectively injected into the immunodeficient mice by bone marrow transplantation. Each group contain 8 mice, and each mouse was injected with the total cells expanded from 5000 original CD34+ cells. The reconstitution ratio of human cells in peripheral blood and bone marrow of immunodeficient mice were measured after 4 months. In the experimental group, the reconstruction proportion of human blood cells in bone marrow (CD45+ cells) reached about 50%, and the blood cells in human peripheral blood reached about 5%. In the control group, the reconstruction proportion of human blood cells in bone marrow reached about 20%, and the blood cells in human peripheral blood reached about 1%. The reconstruction effect of the experimental group was about 4 times higher than that of the control group after a general comparison.

[1] = test system: cord blood-derived CD34+ cells; assay: In vitro expansion of CD34+CD45RA− cells, 7-day culture of cord blood-derived CD34+ cells; assay type: cell-based, human
Protocol: The material was derived from cord blood waste supplied by the company, and cord blood-derived CD34+ cells were isolated by magnetic bead sorting (MACS) as cultured materials in the following examples.
CD34+ cells were cultured based on the culture conditions of Table 1. The experimental group (the small chemical molecule is SP600125) and the control group (the small chemical molecule is replaced by DMSO, the volume ratio of DMSO: medium is 1:10000) were placed in the cell incubator at 37° C. with the concentration of 5% carbon dioxide, and half amount of the medium was changed every 2 days.
On the 7th day of the culturing, the ratio of CD34+CD45RA−cells was measured, and the fold expansion was counted and calculated. The CD34+CD45RA− in the experimental group was about 15 times in the fold expansion, while the CD34+CD45RA− in the control group was about 5 times in fold expansion.

immunodeficiency mice = details: background, 2010 report; cited from earlier work
LT-HSC = details: background, 2014 report; cited from earlier work
[2] = Example 4: cells expanded with 5 μM
[3] = Example 5: cells expanded with 1 μM
[4] = Example 6: cells expanded with 0.5 μM
[5] = Example 2: cells expanded with 4 μM
[6] = Example 3: cells expanded with 2 μM
[7] = Example 7: cells expanded with 5 μM

## N#C/C(=C1/Nc2ccccc2S1)c1ccnc(NCCc2cccnc2)n1 [AEG-3482]
Immunodeficient mice; Example 4: 5 μM, general comparison
  reconstruction effect of experimental group relative to control group (DMSO): about 2.5 times
Immunodeficient mice; [2]
  blood cells in human peripheral blood (reconstitution proportion of peripheral blood): about 3.5%
  reconstruction proportion of human blood cells in bone marrow (CD45+ cells): about 35%
[1]; Example 4: 5 μM, SCF 10, FL 100, TPO 10 ng/ml, LDL 2 μg/ml, day 7
  proliferation amount of CD34+CD45RA− in the experimental group relative to control group (DMSO): 2.3 times

## CN(C)C/C=C/C(=O)Nc1cccc(C(=O)Nc2ccc(Nc3nccc(-c4cccnc4)n3)cc2)c1 [JNK-IN-7]
Immunodeficient mice; Example 5: 1 μM, general comparison
  reconstruction effect of experimental group relative to control group (DMSO): about 5 times
Immunodeficient mice; [3]
  blood cells in human peripheral blood (reconstitution proportion of peripheral blood): about 8.5%
  reconstruction proportion of human blood cells in bone marrow (CD45+ cells): about 58%
[1]; Example 5: 1 μM, SCF 200, FL 50, TPO 5 ng/ml, LDL 10 μg/ml, day 7
  proliferation amount of CD34+CD45RA− in the experimental group relative to control group (DMSO): 2.5 times

## CN(C)C/C=C/C(=O)Nc1cccc(C(=O)Nc2ccc(Nc3nccc(-c4c(-c5ccccc5)nn5ccccc45)n3)cc2)c1 [JNK-IN-11]
Immunodeficient mice; Example 6: 0.5 μM, general comparison
  reconstruction effect of experimental group relative to control group (DMSO): about 8 times
Immunodeficient mice; [4]
  blood cells in human peripheral blood (reconstitution proportion of peripheral blood): about 12.5%
  reconstruction proportion of human blood cells in bone marrow (CD45+ cells): about 78%
[1]; Example 6: 0.5 μM, SCF 300, FL 100, TPO 20 ng/ml, LDL 10 μg/ml, day 7
  proliferation amount of CD34+CD45RA− in the experimental group relative to control group (DMSO): 2.8 times

## O=C1c2ccccc2-c2n[nH]c3cccc1c23 [SP600125]
Immunodeficient mice; Example 1: 4 μM, general comparison
  reconstruction effect of experimental group relative to control group (DMSO): about 4 times
Immunodeficient mice; Example 1: cells expanded with 4 μM
  blood cells in human peripheral blood (reconstitution proportion of peripheral blood): about 5%
Immunodeficient mice; Example 1: cells expanded with 4 μM, cells from 5000 original CD34+ cells per mouse
  reconstruction proportion of human blood cells in bone marrow (CD45+ cells): about 50%
Immunodeficient mice; Example 2: 4 μM, general comprehensive comparison
  reconstruction effect of experimental group relative to control group (DMSO): about 6 times
Immunodeficient mice; [5]
  blood cells in human peripheral blood (reconstitution proportion of peripheral blood): about 9%
  reconstruction proportion of human blood cells in bone marrow (CD45+ cells): about 70%
Immunodeficient mice; Example 3: 2 μM, general comparison
  reconstruction effect of experimental group relative to control group (DMSO): about 4 times
Immunodeficient mice; [6]
  blood cells in human peripheral blood (reconstitution proportion of peripheral blood): about 4%
  reconstruction proportion of human blood cells in bone marrow (CD45+ cells): about 40%
Immunodeficient mice; Example 7: 5 μM, general comparison
  reconstruction effect of experimental group relative to control group (DMSO): about 5.5 times
Immunodeficient mice; [7]
  blood cells in human peripheral blood (reconstitution proportion of peripheral blood): about 7.5%
  reconstruction proportion of human blood cells in bone marrow (CD45+ cells): about 58%
[1]; Example 1: 4 μM, SCF 100, FL 100, TPO 50 ng/ml, LDL 10 μg/ml
  fold expansion of CD34+CD45RA− cells at day 7 relative to the primary cells: about 15 times
[1]; Example 2: 4 μM, SCF 50, FL 50, TPO 25 ng/ml, LDL 5 μg/ml, day 7
  CD34+CD45RA− in the experimental group relative to control group (DMSO): 2.5 times
[1]; Example 3: 2 μM, SCF 20, FL 50, TPO 20 ng/ml, LDL 5 μg/ml, day 7
  proliferation amount of CD34+CD45RA− in the experimental group relative to control group (DMSO): 2 times
[1]; Example 7: 5 μM, SCF 500, FL 100, TPO 20 ng/ml, LDL 10 μg/ml, day 7
  proliferation amount of CD34+CD45RA− in the experimental group relative to control group (DMSO): 2.3 times

## CC(C)n1cnc2c(NCCc3ccc(O)cc3)nc(-c3csc4ccccc34)nc21 [SR1]
Immunodeficiency mice
  increase of the amount of exogenous hematopoietic cells detected in immunodeficiency mice: 17 times

## Cn1nnc(-c2ccc3c(c2)[nH]c2nc(Cc4ccccc4)nc(NC4CCC(N)CC4)c23)n1 (stereo not drawn) [UM171]
LT-HSC
  maintenance of the function of hematopoietic reconstitution: up to 6 months
